Earlier results as cited in US20080299050A1, “TOPICAL THERAPIES FOR ORAL MUCOSITIS AND OTHER CONDITIONS” (DrugTech Corporation, priority 2006, published 2008).

How the values were obtained:
[1] = very large dose applied topically to a pressure ulcer
[2] = tested on: human slin fibroblast cultures
gingival wound = settings: by mouth for up to 8 weeks prior to gingival excision
gingiva = settings: administered systemically

Structure (SMILES) | systemic absorption of phenyloin [1] | cell proliferation (enhancing effect) ([2]; higher concentration (25 or 50 μg/ml) or longer incubation time (25 h or 48 h)) | cell proliferation ([2]; low concentration (5 μg/ml) and short incubation time (3 h)) | gingival wound healing (gingival wound) | side effect (gingiva)
O=C1NC(=O)C(c2ccccc2)(c2ccccc2)N1 [phenyloin, 5,5-diphenyl-2,4-imidazolidinedione] | little systemic absorption | reduced or reversed | enhanced |  | 
O=C1N=C([O-])NC1(c1ccccc1)c1ccccc1.[Na+] [phenyloin sodium] |  |  |  | greatly enhanced | gingival hyperplasia
